Measurements from patent US20260327216A1, “SUBSTITUTED OXAZOLONE COMPOUND FOR DECREASING LEVELS OF IKZF I-4 PROTEINS” (BRISTOL-MYERS SQUIBB COMPANY, priority 2023, published 2026).

Legend:
IKZF2 Helios [1] = target: T1, IKZF2 Helios (Homo sapiens, UniProt Q96SW2+Q9UKS7); assay: Human Regulatory T Cell Degradation Assay, IKZF2; type: cell-based; parameters: endogenous in cells; host or cells: FACS-sorted human CD4+CD127lowCD25+ Treg cells from healthy leukopaks; conditions: human regulatory T cells, 20 hours; for Dmax: Regulatory T cell, 100% = complete degradation, read-out: IKZF2 Helios max % deg. observed
Procedure: Cryopreserved human regulatory T cells were thawed in RPMI+10% FBS+20 ng/mL IL-2. After being spun at 1200 rpm for 5 mins, the cells were resuspended in RPMI+10% FBS+20 ng/mL and rested at 37° C. with 5% CO2 for 3 hours. The cells were then plated at 40,000 cells/well in 40 μL RPMI+10% FBS+20 ng/ml human IL-2 in a 384 well cell culture plate prior to using acoustic dispensing technology (ECHO 555) for adding compounds of interest. Cell cultures were incubated for 20 hours at 37° C. and 5% CO2. In order to facilitate analysis, cell cultures were spun down at 1200 rpm for 5 minutes and the supernatant was discarded using an EL406 plate washer. After washing three times with 70 μL PBS, cell pellets were resuspended in 50 μL of near IR viability staining solution (Life Technologies, Cat #L34975) and incubated for 30 minutes on ice protected from light. Cells were washed three times with 70 μL PBS+0.5% BSA using an EL406 plate washer. After shaking the plate to dislodge the cell pellet, cells were resuspended in 50 μL of Fixation Buffer (eBioScience FoxP3 buffer set 00-5523-00) for 60 minutes at room temperature. After centrifuging and discarding the supernatant, cells were permeabilized with 50 μL of permeabilization buffer (eBioScience FoxP3 buffer set 00-5523-00) for 10 minutes at room temperature. Following permeabilization, cells were spun down and the supernatant was replaced with 30 μL fluorescently labelled antibodies against the intracellular targets Helios (Helios-APC [BioLegend, Cat #137222, 1:50])]), Aiolos, and Ikaros 1× Permeabilization buffer and staining reactions were incubated for 1 bour at room temperature; protected from light. Subsequently, 30 μL of 1× Permeabilization buffer was added prior to centrifuging the cells and discarding the supernatant. Stained cells were resuspended in 30 μL of flow cytometry staining buffer (PBS+0.5% BSA) and analyzed using an Intellicyt Ique Plus flow cytometer.
(§1) Table B-1 lists the maximum observed degradation of the IKZF1 protein and IKZF2 protein as measured in the Human Regulatory T Cell Degradation assay. The results in Table B-1 were rounded to two digits. In the Human Regulatory T Cell Degradation assay, a value of 100% indicated no detectable protein remaining or complete degradation of the protein; and a value of 0% indicated no detectable degradation of the protein by the test compound.

IKZF2 Helios [2] = target: T1, IKZF2 Helios; assay: Human Regulatory T Cell Reprogramming Assay, IKZF2; type: cell-based; parameters: endogenous in cells; host or cells: FACS-sorted human CD4+CD127lowCD25+ Treg cells from healthy leukopaks; conditions: 12-13 days; for Dmax: Regulatory T cell, human, read-out: IKZF2 Helios max % deg. observed; for Dmax / IKZF2 Helios max % deg. observed: human CD4+CD127lowCD25+ Treg cells, stimulated, 100% = complete degradation
Procedure: Human CD4^+ T cells were isolated from fresh healthy leukopaks (Stemcell Technologies) using the RosetteSep Human CD4^+ T cell enrichment cocktail (Stemcell Technologies) and Ficoll density gradient centrifugation. Leukopaks were diluted with an equal volume of phosphate-buffered saline (PBS [Gibco]) supplemented with 2% fetal bovine serum (FBS, VWR Lifescience) and incubated with RosetteSep Human CD4^+ T cell enrichment cocktail for 20 minutes before layering on Ficoll-Paque Plus solution (GE Health Care). The cell-rich interface layer was harvested and washed twice with PBS supplemented with 2% FBS. Regulatory T cells were then isolated manually using the EasySep Human CD4^+CD127^lowCD25^+ Regulatory T cell isolation kit (Stemcell Technologies) according to the manufacturer's instructions. Cells were rested overnight in Roswell Park Memorial Institute (RPMI) 1640 media (Gibco) supplemented with 10% FBS, Pen/Strep (Gibco), MEM-NEAA (Gibco), and sodium pyruvate (Gibco) in a humidified incubator (37° C., 5% CO2). Cells were then stained for CD4 (clone: RPA-T4, Biolegend), CD25 (clone: 2A3, BD Biosciences), and CD127 (clone: hIL-7R-M21, BD Biosciences). CD4^+CD127^lowCD25^+ cells were sorted on a BD FACS Aria Fusion sorter to a purity of 95% or greater. Sorted cells were immediately used or cryopreserved for downstream assays.
Fresh or cryopreserved FACS-sorted CD4^+CD127^lowCD25^+ Treg cells were cultured at 25,000-50,000 cells/well of 96-well round bottom plates in RPMI 1640 media (Gibco) supplemented with 10% FBS, Pen/Strep (Gibco), MEM-NEAA (Gibco), and sodium pyruvate (Gibco). Cells were stimulated with Treg Xpander beads (Thermo Fisher) at cells-to-beads ratio of 1:4 in the presence of 500 U/mL recombinant human IL-2 (Proleukin). Compounds were added at titrated doses and cells were incubated at 37°C., 5% CO2 for 12-13 days. Recombinant human IL-2 and compound were replenished every 2-3 days during the entire culture duration. On day 12 or 13, cells were restimulated with phorbol 12-myristate 13-acetate (PMA) and ionomycin in the presence of the protein transport inhibitors brefeldin A and monensin (eBioscience Cell Stimulation Cocktail plus protein transport inhibitors, 500×, Catalog number 00-4975-93) before proceeding with flow cytometry staining and analysis.
For flow cytometry staining, cells were washed twice with flow cytometry staining buffer (Thermo Fisher) and incubated in Human Tru-stain Fc block (Biolegend) for 10 minutes before adding eFluor780 viability dye (Thermo Fisher) and surface marker antibody cocktail for 30 minutes at 4° C. Cells were then fixed and permeabilized by incubation with FoxP3 transcription factor staining buffer (Thermo Fisher) for 30 minutes at 4° C. as per the kit manufacturer's instructions. Cells were washed twice with the Perm/Wash buffer supplied in the kit as per the manufacturer's instructions and incubated overnight at 4° C. with an intracellular antibody cocktail comprised of antibodies specific for the transcription factors shown in Table C. Cells were washed twice with Perm/Wash buffer and resuspended in flow cytometry staining buffer (Thermo Fisher) prior to acquisition. Sample acquisition and analysis was performed using a BD LSRFortessa (BD Biosciences) flow cytometer. Single stain controls for each fluorochrome were prepared using UltraComp eBead Compensation Beads (Thermo Fisher). Data were analyzed using FlowJo version 10 and GraphPad Prism Software.
as §1, with “C-1” for “B-1”, “IKZF2” for “IKZF1”, “IKZF4” for “IKZF2”, “Reprogramming” for “Degradation”

T1 sequence (Q9UKS7 whole entry): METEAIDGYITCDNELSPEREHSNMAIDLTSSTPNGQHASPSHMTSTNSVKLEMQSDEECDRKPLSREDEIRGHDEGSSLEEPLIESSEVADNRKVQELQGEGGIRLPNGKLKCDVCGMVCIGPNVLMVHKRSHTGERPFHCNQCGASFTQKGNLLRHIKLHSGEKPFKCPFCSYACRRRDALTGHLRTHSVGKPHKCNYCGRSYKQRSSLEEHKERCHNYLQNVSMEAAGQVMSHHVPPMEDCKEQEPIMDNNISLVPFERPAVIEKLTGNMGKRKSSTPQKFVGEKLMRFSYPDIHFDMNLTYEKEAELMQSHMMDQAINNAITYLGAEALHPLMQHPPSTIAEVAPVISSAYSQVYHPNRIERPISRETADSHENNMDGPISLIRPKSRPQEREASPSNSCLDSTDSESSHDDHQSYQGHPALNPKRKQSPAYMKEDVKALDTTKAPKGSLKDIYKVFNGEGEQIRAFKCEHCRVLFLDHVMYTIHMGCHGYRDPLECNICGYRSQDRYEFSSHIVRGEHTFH
T1 sequence (Q96SW2 whole entry): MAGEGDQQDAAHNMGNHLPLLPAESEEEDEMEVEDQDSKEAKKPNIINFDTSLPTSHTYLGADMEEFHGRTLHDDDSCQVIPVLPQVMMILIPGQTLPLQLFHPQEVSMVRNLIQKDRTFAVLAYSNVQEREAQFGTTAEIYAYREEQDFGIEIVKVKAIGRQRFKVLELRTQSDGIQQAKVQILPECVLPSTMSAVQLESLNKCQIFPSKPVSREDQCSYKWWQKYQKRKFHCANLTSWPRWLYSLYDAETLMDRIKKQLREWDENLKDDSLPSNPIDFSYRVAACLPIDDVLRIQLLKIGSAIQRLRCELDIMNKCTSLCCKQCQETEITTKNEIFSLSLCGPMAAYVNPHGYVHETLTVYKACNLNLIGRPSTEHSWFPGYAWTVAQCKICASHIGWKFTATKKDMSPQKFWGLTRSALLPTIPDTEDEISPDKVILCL
T1 sequence (Q16531 whole entry partner): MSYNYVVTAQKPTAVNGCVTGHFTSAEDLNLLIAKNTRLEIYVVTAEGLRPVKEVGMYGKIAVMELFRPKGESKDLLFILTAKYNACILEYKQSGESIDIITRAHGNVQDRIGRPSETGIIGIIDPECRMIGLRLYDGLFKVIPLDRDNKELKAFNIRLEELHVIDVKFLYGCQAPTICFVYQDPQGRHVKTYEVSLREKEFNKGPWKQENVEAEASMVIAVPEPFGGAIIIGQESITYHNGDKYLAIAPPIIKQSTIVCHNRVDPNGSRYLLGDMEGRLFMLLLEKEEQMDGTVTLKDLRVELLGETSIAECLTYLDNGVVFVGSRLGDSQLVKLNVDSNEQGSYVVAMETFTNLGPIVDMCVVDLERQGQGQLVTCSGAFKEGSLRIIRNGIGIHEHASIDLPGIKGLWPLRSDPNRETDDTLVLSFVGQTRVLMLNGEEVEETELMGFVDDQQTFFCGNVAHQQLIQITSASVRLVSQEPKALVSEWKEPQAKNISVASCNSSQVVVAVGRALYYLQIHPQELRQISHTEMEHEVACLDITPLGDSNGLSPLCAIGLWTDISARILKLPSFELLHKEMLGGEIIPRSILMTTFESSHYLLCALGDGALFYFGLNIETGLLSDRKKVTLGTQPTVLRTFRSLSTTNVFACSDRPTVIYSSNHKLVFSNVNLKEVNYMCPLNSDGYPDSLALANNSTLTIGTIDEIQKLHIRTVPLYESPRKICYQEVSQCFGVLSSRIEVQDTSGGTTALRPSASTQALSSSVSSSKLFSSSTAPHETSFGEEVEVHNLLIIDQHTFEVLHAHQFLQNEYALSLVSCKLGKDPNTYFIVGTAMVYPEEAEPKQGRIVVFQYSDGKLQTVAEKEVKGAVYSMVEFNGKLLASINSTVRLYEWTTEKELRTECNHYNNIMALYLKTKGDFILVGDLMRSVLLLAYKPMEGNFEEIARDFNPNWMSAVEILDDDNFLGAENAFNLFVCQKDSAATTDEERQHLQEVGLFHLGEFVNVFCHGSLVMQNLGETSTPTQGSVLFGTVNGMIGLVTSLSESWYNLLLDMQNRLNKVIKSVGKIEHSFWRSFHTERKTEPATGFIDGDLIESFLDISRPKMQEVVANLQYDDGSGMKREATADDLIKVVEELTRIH

Row | Dmax (IKZF2 Helios [1]) | Dmax (IKZF2 Helios [2]) | IKZF2 Helios max % deg. observed (IKZF2 Helios [2]) | DC50 (IKZF2 Helios [1]; concentration reducing protein level by 50% vs DMSO) | DC50 (IKZF2 Helios [2]; human Treg cells, concentration reducing protein level by 50% vs DMSO) | Compound
1 | 25% | ≤ 6% | 6% |  |  | O=C1CCC(n2cc(-c3ccc(Br)cc3F)oc2=O)C(=O)N1 (stereo not shown) [Comparative Compound B, 3-(5-(4-bromo-2-fluorophenyl)-2-oxooxazol-3(2H)-yl)piperidine-2,6-dione]
2 | 57% |  | 1% |  |  | O=C1CCC(n2cc(-c3ccccc3)oc2=O)C(=O)N1 (stereo not shown) [Comparative Compound A, 3-(2-oxo-5-phenyloxazol-3(2H)-yl)piperidine-2,6-dione]
3 | 90% | 86 to 92% | 86-92% | 0.68 nM | 1.1 to 1.4 nM | Cc1cc(-c2ccc(-c3cn(C4CCC(=O)NC4=O)c(=O)o3)c(F)c2)nc(N)c1OC(F)F (stereo not shown) [Example 1, 3-(5-(4-(6-Amino-5-(difluoromethoxy)-4-methylpyridin-2-yl)-2-fluorophenyl)-2-oxooxazol-3(2H)-yl)piperidine-2,6-dione]
